Calls of active or inactive are those of the source. The calls are words filed in the database; no cut-off is given here.
Columns and labels:
Mus musculus [1] = species on record: Mus musculus; assay: Inhibition of c-KIT D820G mutant in mouse BAF3(transformed) cells assessed as growth inhibition after 72 hrs by CCK8 assay
[2] = Antitumor activity against mouse BAF3(transformed) cells harboring c-KIT T670I mutant implanted in BALB/c nu mouse assessed as tumor growth inhibition at 40 mg/kg/day, po administered via gavage for 11 days relative to control; format: functional; details: 264 h, read-out: TGI
[3] = Growth inhibition of human GIST48B cells after 72 hrs by CCK8 assay; format: functional
Mus musculus [4] = species on record: Mus musculus; assay: Inhibition of c-KIT D816E mutant in mouse BAF3(transformed) cells assessed as growth inhibition after 72 hrs by CCK8 assay
Mus musculus [5] = species on record: Mus musculus; assay: Inhibition of c-KIT S709F mutant in mouse BAF3(transformed) cells assessed as growth inhibition after 72 hrs by CCK8 assay
[6] = test system: Mast/stem cell growth factor receptor Kit (Homo sapiens), P10721 [D820E]; details: Mus musculus
Description: Inhibition of c-KIT D820E mutant in mouse BAF3(transformed) cells assessed as growth inhibition after 72 hrs by CCK8 assay

[7] = test system: Mast/stem cell growth factor receptor Kit (Homo sapiens), P10721 [UNDEFINED MUTATION]; details: 0.1 uM
Description: Inhibition of c-KIT 560 to 578 deletion/T670I mutant in human GIST5R assessed as reduction in STAT3 phosphorylation at Y705 residue at 0.1 uM measured after 2 hrs by Western blot analysis

[8] = test system: Mast/stem cell growth factor receptor Kit (Homo sapiens), P10721 [UNDEFINED MUTATION]; details: GISTT1, 0.1 uM
Description: Inhibition of c-KIT 560 to 578 deletion/T670I mutant in human GISTT1 cells assessed as reduction in c-KIT autophosphorylation at Y823 residue at 0.1 uM measured after 2 hrs by Western blot analysis

[9] = Growth inhibition of mouse BAF3 cells measured after 72 hrs by CCK8 assay; format: cell-based
[10] = test system: Mast/stem cell growth factor receptor Kit (Homo sapiens), P10721 [UNDEFINED MUTATION]; details: 0.1 uM; remark: listed apart in the source
Description: Inhibition of c-KIT 560 to 578 deletion/T670I mutant in human GIST5R cells assessed as reduction in c-KIT autophosphorylation at Y823 residue at 0.1 uM measured after 2 hrs by Western blot analysis

[11] = test system: Mast/stem cell growth factor receptor Kit (Homo sapiens), P10721 [V559D]; details: Mus musculus
Description: Inhibition of c-KIT V559D mutant in mouse BAF3(transformed) cells assessed as growth inhibition after 72 hrs by CCK8 assay

[12] = test system: Mast/stem cell growth factor receptor Kit (Homo sapiens), P10721 [D816H]; details: Mus musculus
Description: Inhibition of c-KIT D816H mutant in mouse BAF3(transformed) cells assessed as growth inhibition after 72 hrs by CCK8 assay

Mus musculus [13] = species on record: Mus musculus; assay: Inhibition of c-KIT T670I/V559D double mutant in mouse BAF3(transformed) cells assessed as growth inhibition after 72 hrs by CCK8 assay
[14] = test system: Mast/stem cell growth factor receptor Kit (Homo sapiens), P10721 [A829P]; details: Mus musculus
Description: Inhibition of c-KIT A829P mutant in mouse BAF3(transformed) cells assessed as growth inhibition after 72 hrs by CCK8 assay

[15] = test system: Mast/stem cell growth factor receptor Kit (Homo sapiens), P10721 [D820Y]; details: Mus musculus
Description: Inhibition of c-KIT D820Y mutant in mouse BAF3(transformed) cells assessed as growth inhibition after 72 hrs by CCK8 assay

Mus musculus [16] = species on record: Mus musculus; assay: Inhibition of c-KIT V654A/V559D double mutant in mouse BAF3(transformed) cells assessed as growth inhibition after 72 hrs by CCK8 assay
[17] = test system: Mast/stem cell growth factor receptor Kit (Homo sapiens), P10721 [UNDEFINED MUTATION]; details: 0.1 uM; remark: listed apart in the source
Description: Inhibition of c-KIT 560 to 578 deletion/T670I mutant in human GIST5R cells assessed as reduction in c-KIT autophosphorylation at Y703 residue at 0.1 uM measured after 2 hrs by Western blot analysis

[18] = molecular target: Mast/stem cell growth factor receptor Kit (Mus musculus) (UniProt P05532); assay: Inhibition of c-KIT in mouse BAF3(transformed) cells assessed as growth inhibition after 72 hrs by CCK8 assay
[19] = test system: Mast/stem cell growth factor receptor Kit (Homo sapiens), P10721 [UNDEFINED MUTATION]; details: GISTT1, 0.1 uM; remark: listed apart in the source
Description: Inhibition of c-KIT 560 to 578 deletion/T670I mutant in human GISTT1 cells assessed as reduction in pS6 phosphorylation at S236 residue at 0.1 uM measured after 2 hrs by Western blot analysis

[20] = molecular target: RAC-alpha serine/threonine-protein kinase (Homo sapiens) (UniProt P31749); details: 0.1 uM
Description: Inhibition of AKT autophosphorylation at T308 residue in human GIST5R cells harboring c-KIT 560 to 578 deletion/T670I mutant at 0.1 uM measured after 2 hrs by Western blot analysis

GISTT1 = format: functional, Homo sapiens; details: for inhibition in vivo at 20 mg/kg/day: Mus musculus, GISTT1, po, 672 h, read-out: TGI
[21] = test system: Mast/stem cell growth factor receptor Kit (Homo sapiens), P10721 [D816V]; details: Mus musculus
Description: Inhibition of c-KIT D816V mutant in mouse BAF3(transformed) cells assessed as growth inhibition after 72 hrs by CCK8 assay

Mus musculus [22] = species on record: Mus musculus; assay: Inhibition of c-KIT T670E mutant in mouse BAF3(transformed) cells assessed as growth inhibition after 72 hrs by CCK8 assay
[23] = molecular target: T1, Mast/stem cell growth factor receptor Kit (Homo sapiens, UniProt P10721, 560-578DEL/T670I); format: cell-based, GISTT1
[24] = molecular target: Platelet-derived growth factor receptor beta (Homo sapiens, UniProt P09619); assay: Binding affinity to wild-type human partial length PDGFRB (V582 to Y1009 residues) expressed in bacterial expression system assessed as residual binding level at 1 uM by Kinomescan method relative to control
[25] = molecular target: Mast/stem cell growth factor receptor Kit (Homo sapiens, UniProt P10721, T670I/V559D); assay: Inhibition of human N-terminal GST-tagged KIT V559D/T670I double mutant (544 to end residues) expressed in baculovirus infected Sf9 insect cells by Lanthascreen Eu-binding method
[26] = molecular target: Epithelial discoidin domain-containing receptor 1 (Homo sapiens, UniProt Q08345); assay: Binding affinity to wild-type human partial length DDR1 (R565 to V876 residues) expressed in bacterial expression system assessed as residual binding level at 1 uM by Kinomescan method relative to control
[27] = Oral bioavailability in mouse at 10 mg/kg by LC-MS/MS analysis; format: ADME, organism-based; details: in vivo
[28] = molecular target: Mast/stem cell growth factor receptor Kit (Homo sapiens, UniProt P10721); assay: Inhibition of human KIT
[29] = molecular target: Macrophage colony-stimulating factor 1 receptor (Homo sapiens, UniProt P07333); assay: Binding affinity to wild-type human partial length CSF1R (I564 to S939 residues) expressed in bacterial expression system assessed as residual binding level at 1 uM by Kinomescan method relative to control
[30] = molecular target: Vascular endothelial growth factor receptor 3 (Homo sapiens) (UniProt P35916); assay: Binding affinity to wild-type human partial length FLT4 (E821 to E1196 residues) expressed in bacterial expression system assessed as residual binding level at 1 uM by Kinomescan method relative to control
[31] = molecular target: T1, Mast/stem cell growth factor receptor Kit
[32] = Cmax in Sprague-Dawley rat at 1 mg/kg, iv by LC-MS/MS analysis; format: ADME, organism-based; design: dose 1 mg/kg, route intravenous; details: in vivo
[33] = Half life in Sprague-Dawley rat at 1 mg/kg, iv by LC-MS/MS analysis; format: ADME, organism-based; details: in vivo
[34] = molecular target: Platelet-derived growth factor receptor alpha (Homo sapiens, UniProt P16234); format: cell-based; details: GISTT1
[35] = Tmax in Sprague-Dawley rat at 10 mg/kg, po by LC-MS/MS analysis; format: ADME, organism-based; details: in vivo
[36] = molecular target: Macrophage colony-stimulating factor 1 receptor (Mus musculus) (UniProt P09581); assay: Inhibition of CSF1R in mouse BAF3(transformed) cells assessed as growth inhibition after 72 hrs by CCK8 assay
Homo sapiens = species on record: Homo sapiens; format: functional, cell-based
[37] = Antitumor activity against mouse BAF3(transformed) cells harboring c-KIT Y823D mutant implanted in BALB/c nu mouse assessed as tumor growth inhibition at 80 mg/kg/day, po administered via gavage for 9 days relative to control; format: functional; details: 216 h, read-out: TGI
Mus musculus [38] = format: functional, organism-based; details: BALB/c, 80 mg/kg
[39] = molecular target: T1, Mast/stem cell growth factor receptor Kit; remark: listed apart in the source
[40] = Tmax in Beagle dog at 1 mg/kg, iv by LC-MS/MS analysis; format: ADME, organism-based, Canis lupus familiaris; details: in vivo

T1 sequence (P10721 whole entry, looked up, stated change not applied, the tested form may be a part): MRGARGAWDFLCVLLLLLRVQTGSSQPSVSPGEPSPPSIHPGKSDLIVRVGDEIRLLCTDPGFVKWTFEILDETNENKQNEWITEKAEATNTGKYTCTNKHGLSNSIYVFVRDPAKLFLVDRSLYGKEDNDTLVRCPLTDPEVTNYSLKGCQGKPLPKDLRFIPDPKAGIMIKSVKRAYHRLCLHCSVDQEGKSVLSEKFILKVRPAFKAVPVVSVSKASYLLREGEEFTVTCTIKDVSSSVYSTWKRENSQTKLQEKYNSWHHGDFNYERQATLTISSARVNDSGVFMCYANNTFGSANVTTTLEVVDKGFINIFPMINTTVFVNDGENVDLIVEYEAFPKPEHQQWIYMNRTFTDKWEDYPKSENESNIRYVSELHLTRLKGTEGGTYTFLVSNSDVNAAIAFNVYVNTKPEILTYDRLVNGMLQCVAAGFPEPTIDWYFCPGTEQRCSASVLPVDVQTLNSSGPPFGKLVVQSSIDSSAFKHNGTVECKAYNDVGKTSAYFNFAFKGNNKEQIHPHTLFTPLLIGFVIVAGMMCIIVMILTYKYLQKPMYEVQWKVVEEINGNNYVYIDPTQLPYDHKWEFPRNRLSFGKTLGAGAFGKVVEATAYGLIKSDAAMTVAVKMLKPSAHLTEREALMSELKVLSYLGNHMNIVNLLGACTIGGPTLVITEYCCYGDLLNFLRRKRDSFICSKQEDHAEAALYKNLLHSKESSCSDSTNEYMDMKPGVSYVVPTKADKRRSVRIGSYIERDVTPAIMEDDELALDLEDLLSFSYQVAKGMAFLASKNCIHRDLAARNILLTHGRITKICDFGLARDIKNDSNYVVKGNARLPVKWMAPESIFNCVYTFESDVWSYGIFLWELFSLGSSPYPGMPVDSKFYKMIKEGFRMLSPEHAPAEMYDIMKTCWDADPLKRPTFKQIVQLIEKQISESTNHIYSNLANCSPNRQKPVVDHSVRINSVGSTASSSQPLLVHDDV
Sequence of Mast/stem cell growth factor receptor Kit (Homo sapiens), P10721 [UNDEFINED MUTATION] (P10721 whole entry, looked up, stated change not applied): as the sequence (P10721 whole entry, looked up, stated change not applied, the tested form may be a part) above
Sequence of Mast/stem cell growth factor receptor Kit (Homo sapiens), P10721 [D816H] (P10721 whole entry D816H): as the sequence (P10721 whole entry, looked up, stated change not applied, the tested form may be a part) above, with D816H counted along it
Sequence of Mast/stem cell growth factor receptor Kit (Mus musculus) (P05532 whole entry): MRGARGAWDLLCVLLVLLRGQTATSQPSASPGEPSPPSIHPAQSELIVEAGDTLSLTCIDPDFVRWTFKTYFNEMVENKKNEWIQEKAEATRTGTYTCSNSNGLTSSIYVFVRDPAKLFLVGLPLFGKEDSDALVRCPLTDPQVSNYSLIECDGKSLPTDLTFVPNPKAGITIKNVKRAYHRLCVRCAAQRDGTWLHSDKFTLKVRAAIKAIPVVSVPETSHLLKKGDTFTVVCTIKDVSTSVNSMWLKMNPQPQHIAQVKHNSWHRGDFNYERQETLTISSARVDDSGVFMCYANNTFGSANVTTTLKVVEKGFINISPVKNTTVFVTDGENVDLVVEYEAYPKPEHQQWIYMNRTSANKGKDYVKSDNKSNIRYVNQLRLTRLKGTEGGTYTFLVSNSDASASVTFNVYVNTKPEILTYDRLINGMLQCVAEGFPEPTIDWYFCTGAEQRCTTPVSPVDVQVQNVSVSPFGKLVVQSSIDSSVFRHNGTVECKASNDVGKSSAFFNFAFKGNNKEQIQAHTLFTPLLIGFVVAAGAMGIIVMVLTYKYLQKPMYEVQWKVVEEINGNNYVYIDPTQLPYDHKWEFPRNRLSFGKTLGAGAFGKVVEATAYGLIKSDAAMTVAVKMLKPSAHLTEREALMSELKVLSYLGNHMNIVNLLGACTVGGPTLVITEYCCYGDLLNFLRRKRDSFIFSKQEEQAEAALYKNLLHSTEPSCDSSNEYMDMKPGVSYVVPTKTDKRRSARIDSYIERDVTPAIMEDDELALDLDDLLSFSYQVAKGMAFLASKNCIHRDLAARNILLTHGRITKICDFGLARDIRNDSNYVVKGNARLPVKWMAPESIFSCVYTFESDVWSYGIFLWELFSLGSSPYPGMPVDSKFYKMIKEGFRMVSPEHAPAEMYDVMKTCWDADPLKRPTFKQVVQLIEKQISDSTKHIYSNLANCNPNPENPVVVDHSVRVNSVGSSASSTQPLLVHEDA
Sequence of Mast/stem cell growth factor receptor Kit (Homo sapiens), P10721 [D820E] (P10721 whole entry D820E): as the sequence (P10721 whole entry, looked up, stated change not applied, the tested form may be a part) above, with D820E counted along it

SMILES	GI50 (Mus musculus [1]) [nM]	inhibition in vivo at 40 mg/kg/day [2] [%]	GI50 [3] [nM]	GI50 (Mus musculus [4]) [nM]	GI50 (Mus musculus [5]) [nM]	GI50 [6] [nM]	GI50 at 72 h [9] [nM]	GI50 [11] [nM]	GI50 [12] [nM]	GI50 (Mus musculus [13]) [nM]	GI50 [14] [nM]	GI50 [15] [nM]	GI50 (Mus musculus [16]) [nM]	GI50 [18] [nM]	inhibition in vivo at 20 mg/kg/day (GISTT1) [%]	GI50 [21] [nM]	GI50 (Mus musculus [22]) [nM]	also measured
CCN(CC)CCNC(=O)c1c(C)[nH]c(/C=C2\C(=O)Nc3ccc(F)cc32)c1C [SUNITINIB]	389	96.7	740	59	28	93	1010	1	315	12	18	172	19	3	93.6	1720	89	inhibition [7]: Active; inhibition [8]: Active; inhibition [10]: Active; inhibition [17]: Active; inhibition [19]: Active; inhibition [20]: Active
COc1cc2nccc(Oc3ccc(NC(=O)Cc4ccc(Cl)c(C(F)(F)F)c4)cc3)c2cc1OC	9	90.2	1370	16	17	1	5970	6	97	45	22	3	42	1	59.4	1730	71	EC50 [23]: < 100 nM; Activity [24]: < 1%; IC50 [25]: 8 nM; Activity [26]: < 1%; bioavailability [27]: 43%; IC50 [28]: 4 nM; Activity [29]: < 1%; Activity [30]: < 1%; EC50 [31]: < 100 nM; Cmax [32]: 660 ng/mL; half-life [33]: 15.8 h; inhibition [34]: Active; Tmax [35]: 9 h; GI50 [36]: 3 nM; Activity (Homo sapiens): Dose-dependent effect; inhibition in vivo at 80 mg/kg/day [37]: 90.2%; TGI (GISTT1; Homo sapiens, 20 mg/kg): Dose-dependent effect; inhibition (Mus musculus [38]): inactive; EC50 [39]: < 100 nM; Tmax [40]: 1.98 min
